Reference: US20140000882A1, “PETROLEUM RECOVERY PROCESS AND SYSTEM” (Shell Oil Company, priority 2012, published 2014)

Assay: Oil recovery from formation core by brine displacement followed by DMS displacement
Conditions: after waterflooding with brine
Description: Incremental recovery of oil from a formation core using an oil recovery formulation consisting of dimethyl sulfide following oil recovery from the core by water-flooding was measured to evaluate the effectiveness of DMS as a tertiary oil recovery agent.
Two 5.02 cm long Berea sandstone cores with a core diameter of 3.78 cm and a permeability between 925 and 1325 mD were saturated with a brine having a composition as set forth in Table 7.
After saturation of the cores with brine, the brine was displaced by a Middle Eastern Asphaltic crude oil having the characteristics as set forth above in Table 3 to saturate the cores with oil.
Oil was recovered from each oil saturated core by the addition of brine to the core under pressure and by subsequent addition of DMS to the core under pressure. Each core was treated as follows to determine the amount of oil recovered from the core by addition of brine followed by addition of DMS. Oil was initially displaced from the core by addition of brine to the core under pressure. A confining pressure of 1 MPa was applied to the core during addition of the brine, and the flow rate of brine to the core was set at 0.05 ml/min. The core was maintained at a temperature of 50° C. during displacement of oil from the core with brine. […]

oil remaining in the core after the waterflood recovered: approximately 60%
Compound: CSC [Dimethyl Sulfide, dimethyl sulfide]
